Measurements: ChEMBL document CHEMBL4806963, “Antagonistic peptides for frizzled-1 and frizzled-2” (2013)
Calls of active or inactive are those of the source. No cut-off for these calls is given here. Where a SMILES comes first, the peptide text is derived from it.

Assays:
[1] = target: Frizzled-1 (Homo sapiens) (UniProt Q9UP38); assay: Antagonist activity at Wnt3a-stimulated frizzled-1 (unknown origin) expressed in human HEK293superTOP flash cells incubated for 24 hrs by luciferase reporter gene assay; type: functional, cell-based; conditions: HEK293
[2] = target: Frizzled-1 (Homo sapiens) (UniProt Q9UP38); assay: Agonist activity at frizzled-1 (unknown origin) expressed in human HEK293superTOP flash cells by luciferase reporter gene assay; type: functional, cell-based; conditions: HEK293
[3] = target: Frizzled-2 (Homo sapiens) (UniProt Q14332); assay: Antagonist activity at Wnt3a-stimulated frizzled-2 (unknown origin) expressed in human HEK293superTOP flash cells incubated for 24 hrs by luciferase reporter gene assay; type: functional, cell-based; conditions: HEK293
[4] = target: Frizzled-2 (Homo sapiens) (UniProt Q14332); assay: Agonist activity at frizzled-2 (unknown origin) expressed in human HEK293superTOP flash cells by luciferase reporter gene assay; type: functional, cell-based; conditions: HEK293
[5] = target: Frizzled-2 (Rattus norvegicus) (UniProt Q08464); assay: Antagonist activity at Wnt3a-stimulated rat frizzled-2 expressed in African green monkey COS7 cells up to 10 uM incubated for 24 hrs by luciferase reporter gene assay; type: cell-based; conditions: dose microM <=10, time 24.0 hrs
[6] = target: Frizzled-2 (Rattus norvegicus) (UniProt Q08464); assay: Antagonist activity at Wnt3a-stimulated rat frizzled-2 expressed in […] cells up to 10 uM incubated for 24 hrs by luciferase reporter gene assay; type: cell-based; conditions: dose microM <=10, time 24.0 hrs
[7] = target: Frizzled-1 (Homo sapiens) (UniProt Q9UP38); assay: Antagonist activity at Wnt3a-stimulated frizzled-1 (unknown origin) expressed in human HEK293superTOP flash cells at 10 nM incubated for 24 hrs by luciferase reporter gene assay; type: functional, cell-based; conditions: HEK293
[8] = target: Frizzled-1 (Rattus norvegicus) (UniProt Q08463); assay: Antagonist activity at Wnt3a-stimulated rat frizzled-1 expressed in African green monkey COS7 cells up to 10 uM incubated for 24 hrs by luciferase reporter gene assay; type: cell-based; conditions: dose microM <=10, time 24.0 hrs
[9] = target: Frizzled-1 (Homo sapiens) (UniProt Q9UP38); assay: Antagonist activity at Wnt3a-stimulaed frizzled-1 (unknown origin) expressed in human HEK293superTOP flash cells at 1 nM incubated for 24 hrs by luciferase reporter gene assay (reference value: 0%); type: functional, cell-based; conditions: HEK293, filed as antagonist
[10] = target: Frizzled-2 (Homo sapiens) (UniProt Q14332); assay: Antagonist activity at Wnt3a-stimulaed frizzled-2 (unknown origin) expressed in human HEK293superTOP flash cells at 1 nM incubated for 24 hrs by luciferase reporter gene assay (reference value: 0%); type: functional, cell-based; conditions: HEK293, filed as antagonist
[11] = target: Frizzled-2 (Homo sapiens) (UniProt Q14332); assay: Antagonist activity at Wnt3a-stimulated frizzled-2 (unknown origin) expressed in human HEK293superTOP flash cells at 10 nM incubated for 24 hrs by luciferase reporter gene assay; type: functional, cell-based; conditions: HEK293
[12] = target: Frizzled-1 (Rattus norvegicus) (UniProt Q08463); assay: Antagonist activity at Wnt3a-stimulated rat frizzled-1 expressed in CHO cells up to 10 uM incubated for 24 hrs by luciferase reporter gene assay; type: cell-based; conditions: dose microM <=10, time 24.0 hrs

Chain of Frizzled-2 (Homo sapiens) (Q14332 24-565 limits assumed): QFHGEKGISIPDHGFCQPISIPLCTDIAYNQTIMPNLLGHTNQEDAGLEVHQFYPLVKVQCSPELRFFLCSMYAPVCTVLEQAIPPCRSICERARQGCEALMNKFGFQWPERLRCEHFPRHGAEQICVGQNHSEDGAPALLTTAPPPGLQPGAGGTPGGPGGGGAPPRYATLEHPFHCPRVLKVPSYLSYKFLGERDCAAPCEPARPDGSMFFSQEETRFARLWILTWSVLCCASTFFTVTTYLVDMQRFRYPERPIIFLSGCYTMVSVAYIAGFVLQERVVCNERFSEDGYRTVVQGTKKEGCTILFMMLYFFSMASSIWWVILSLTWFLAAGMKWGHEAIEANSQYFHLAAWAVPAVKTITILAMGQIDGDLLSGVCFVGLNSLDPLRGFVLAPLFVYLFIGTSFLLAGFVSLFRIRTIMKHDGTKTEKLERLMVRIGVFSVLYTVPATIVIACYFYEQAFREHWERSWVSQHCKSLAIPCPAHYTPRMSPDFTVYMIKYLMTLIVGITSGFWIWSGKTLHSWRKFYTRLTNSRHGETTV
Chain of Frizzled-1 (Homo sapiens) (Q9UP38 70-647 limits assumed): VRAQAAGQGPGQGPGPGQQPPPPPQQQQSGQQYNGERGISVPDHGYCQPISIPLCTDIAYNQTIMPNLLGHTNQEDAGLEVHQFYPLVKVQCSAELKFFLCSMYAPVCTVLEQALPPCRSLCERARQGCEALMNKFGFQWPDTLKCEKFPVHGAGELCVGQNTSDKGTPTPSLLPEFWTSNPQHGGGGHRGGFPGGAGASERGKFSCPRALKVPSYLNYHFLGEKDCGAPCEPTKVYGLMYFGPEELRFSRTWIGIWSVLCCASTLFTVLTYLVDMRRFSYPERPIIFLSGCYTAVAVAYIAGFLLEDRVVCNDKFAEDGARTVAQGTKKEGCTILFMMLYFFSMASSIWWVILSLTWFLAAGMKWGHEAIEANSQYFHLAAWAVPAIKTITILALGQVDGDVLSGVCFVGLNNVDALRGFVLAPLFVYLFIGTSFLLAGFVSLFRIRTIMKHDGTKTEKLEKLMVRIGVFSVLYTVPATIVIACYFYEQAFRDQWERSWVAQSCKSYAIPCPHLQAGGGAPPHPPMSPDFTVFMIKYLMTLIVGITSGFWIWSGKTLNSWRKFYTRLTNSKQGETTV
Chain of Frizzled-1 (Rattus norvegicus) (Q08463 whole entry): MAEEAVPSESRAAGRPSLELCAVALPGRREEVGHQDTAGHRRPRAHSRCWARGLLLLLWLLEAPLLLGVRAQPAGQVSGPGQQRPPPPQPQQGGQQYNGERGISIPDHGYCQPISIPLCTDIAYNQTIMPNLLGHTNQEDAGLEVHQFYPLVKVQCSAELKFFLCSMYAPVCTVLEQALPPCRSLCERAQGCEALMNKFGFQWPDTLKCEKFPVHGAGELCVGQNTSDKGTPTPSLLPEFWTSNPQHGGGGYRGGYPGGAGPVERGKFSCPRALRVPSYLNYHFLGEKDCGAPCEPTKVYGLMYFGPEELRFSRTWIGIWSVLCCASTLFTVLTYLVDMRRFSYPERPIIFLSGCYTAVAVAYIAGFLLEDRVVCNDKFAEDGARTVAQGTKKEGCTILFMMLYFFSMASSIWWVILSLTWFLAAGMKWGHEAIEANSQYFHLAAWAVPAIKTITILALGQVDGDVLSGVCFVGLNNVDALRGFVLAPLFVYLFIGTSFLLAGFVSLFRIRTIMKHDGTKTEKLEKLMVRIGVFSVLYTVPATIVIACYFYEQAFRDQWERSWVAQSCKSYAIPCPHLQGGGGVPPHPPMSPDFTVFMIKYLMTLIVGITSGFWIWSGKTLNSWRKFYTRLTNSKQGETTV
Chain of Frizzled-2 (Rattus norvegicus) (Q08464 29-570 limits assumed): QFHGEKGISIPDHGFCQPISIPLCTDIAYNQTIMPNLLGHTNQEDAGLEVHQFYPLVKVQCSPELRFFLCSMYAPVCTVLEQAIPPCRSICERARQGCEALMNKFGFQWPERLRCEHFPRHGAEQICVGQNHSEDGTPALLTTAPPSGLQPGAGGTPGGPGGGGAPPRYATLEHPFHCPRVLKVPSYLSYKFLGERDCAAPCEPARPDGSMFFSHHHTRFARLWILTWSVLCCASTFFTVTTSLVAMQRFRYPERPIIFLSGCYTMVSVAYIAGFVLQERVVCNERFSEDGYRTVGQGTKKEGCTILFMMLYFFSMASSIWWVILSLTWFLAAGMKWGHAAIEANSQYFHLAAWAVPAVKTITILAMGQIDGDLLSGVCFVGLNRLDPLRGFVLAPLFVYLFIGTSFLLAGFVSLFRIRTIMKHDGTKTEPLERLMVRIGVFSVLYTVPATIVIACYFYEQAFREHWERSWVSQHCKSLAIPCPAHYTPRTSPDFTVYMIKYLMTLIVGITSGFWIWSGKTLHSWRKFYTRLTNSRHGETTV

Compound | inhibition [1] | Activity [2] | inhibition [3] | Activity [4] | inhibition [5] | inhibition [6] | inhibition [7] | inhibition [8] | inhibition [9] [%] | inhibition [10] [%] | inhibition [11] | inhibition [12]
CC(=O)N[C@@H](CS)C(=O)N[C@@H](CCCCN)C(=O)N[C@@H](CS)C(=O)N[C@@H](Cc1cnc[nH]1)C(=O)NCC(=O)N[C@H](C(=O)N[C@@H](CO)C(=O)NCC(=O)N[C@@H](CO)C(=O)N[C@@H](CS)C(=O)N[C@H](C(=O)N[C@H](C(=O)N[C@@H](CCCCN)C(=O)N[C@H](C(=O)N[C@@H](CS)C(=O)N[C@@H](Cc1c[nH]c2ccccc12)C(N)=O)[C@@H](C)O)C(C)C)[C@@H](C)O)C(C)C (Ac-CKCHGVSGSCTVKTCW-NH2) | inactive | inactive | inactive | inactive |  |  |  |  |  |  |  | 
CSCC[C@H](NC(=O)CNC(=O)[C@H](CO)NC(=O)[C@H](CCCCN)NC(=O)[C@H](CC(N)=O)NC(=O)[C@H](CS)NC(C)=O)C(=O)N[C@@H](CC(=O)O)C(=O)NCC(=O)N[C@@H](CS)C(=O)N[C@@H](CCC(=O)O)C(=O)N[C@@H](CC(C)C)C(N)=O (Ac-CNKSGMDGCEL-NH2) | inactive | inactive | inactive | inactive |  |  |  |  |  |  |  | 
CSCC[C@H](NC(=O)[C@H](C)NC(=O)[C@H](CCC(=O)O)NC(=O)[C@H](CO)NC(=O)[C@@H](NC(=O)[C@H](CCCCN)NC(=O)[C@H](CC(N)=O)NC(=O)[C@H](CS)NC(C)=O)[C@@H](C)O)C(=O)N[C@@H](CC(=O)O)C(=O)NCC(=O)N[C@@H](CS)C(=O)N[C@@H](CCC(=O)O)C(=O)N[C@@H](CC(C)C)C(N)=O (Ac-CNKTSEAMDGCEL-NH2) |  |  |  |  | inactive | inactive | inactive | inactive | 52.6 | 63.1 | inactive | inactive
CC(=O)N[C@@H](CS)C(=O)N[C@@H](CC(N)=O)C(=O)N[C@@H](CCCCN)C(=O)N[C@H](C(=O)N[C@@H](CO)C(=O)N[C@@H](CCC(=O)O)C(=O)NCC(=O)N[C@@H](C)C(=O)N[C@@H](CC(=O)O)C(=O)NCC(=O)N[C@@H](CS)C(=O)N[C@@H](CCC(=O)O)C(=O)N[C@@H](CC(C)C)C(N)=O)[C@@H](C)O (Ac-CNKTSEGADGCEL-NH2) |  |  |  |  | inactive | inactive | inactive | inactive | 67.6 | 85 | inactive | inactive
CSCC[C@H](NC(=O)CNC(=O)[C@H](CCC(=O)O)NC(=O)[C@H](CO)NC(=O)[C@@H](NC(=O)[C@H](CCCCN)NC(=O)[C@H](CC(N)=O)NC(=O)[C@H](CS)NC(C)=O)[C@@H](C)O)C(=O)N[C@@H](C)C(=O)NCC(=O)N[C@@H](CS)C(=O)N[C@@H](CCC(=O)O)C(=O)N[C@@H](CC(C)C)C(N)=O (Ac-CNKTSEGMAGCEL-NH2) |  |  |  |  | inactive | inactive | inactive | inactive | 40.5 | 60.5 | inactive | inactive
CSCC[C@H](NC(=O)CNC(=O)[C@H](CCC(=O)O)NC(=O)[C@H](CO)NC(=O)[C@@H](NC(=O)[C@H](CCCCN)NC(=O)[C@H](CC(N)=O)NC(=O)[C@H](CS)NC(C)=O)[C@@H](C)O)C(=O)N[C@@H](CC(=O)O)C(=O)N[C@@H](C)C(=O)N[C@@H](CS)C(=O)N[C@@H](CCC(=O)O)C(=O)N[C@@H](CC(C)C)C(N)=O (Ac-CNKTSEGMDACEL-NH2) |  |  |  |  | inactive | inactive | inactive | inactive | 69.9 | 83.3 | inactive | inactive
CSCC[C@H](NC(=O)CNC(=O)[C@H](CCC(=O)O)NC(=O)[C@H](CO)NC(=O)[C@@H](NC(=O)[C@H](CCCCN)NC(=O)[C@H](CC(N)=O)NC(=O)[C@H](CS)NC(C)=O)[C@@H](C)O)C(=O)N[C@@H](CC(=O)O)C(=O)NCC(=O)N[C@@H](CS)C(=O)N[C@@H](C)C(=O)N[C@@H](C)C(N)=O (Ac-CNKTSEGMDGCAA-NH2) |  |  |  |  | inactive | inactive | inactive | inactive | 66.8 | 74.3 | inactive | inactive
CSCC[C@H](NC(=O)CNC(=O)[C@H](CCC(=O)O)NC(=O)[C@H](CO)NC(=O)[C@@H](NC(=O)[C@H](CCCCN)NC(=O)[C@H](CC(N)=O)NC(=O)[C@H](CS)NC(C)=O)[C@@H](C)O)C(=O)N[C@@H](CC(=O)O)C(=O)NCC(=O)N[C@@H](CS)C(=O)N[C@@H](C)C(=O)N[C@@H](CC(C)C)C(N)=O (Ac-CNKTSEGMDGCAL-NH2) |  |  |  |  | inactive | inactive | inactive | inactive | 65.9 | 85.5 | inactive | inactive
CSCC[C@H](NC(=O)CNC(=O)[C@H](CCC(=O)O)NC(=O)[C@H](CO)NC(=O)[C@@H](NC(=O)[C@H](CCCCN)NC(=O)[C@H](CC(N)=O)NC(=O)[C@H](CS)NC(C)=O)[C@@H](C)O)C(=O)N[C@@H](CC(=O)O)C(=O)NCC(=O)N[C@@H](CS)C(=O)N[C@@H](CCC(=O)O)C(=O)N[C@@H](C)C(N)=O (Ac-CNKTSEGMDGCEA-NH2) |  |  |  |  | inactive | inactive | inactive | inactive | 65.9 | 86.5 | inactive | inactive
CC[C@H](C)[C@H](NC(C)=O)C(=O)N[C@@H](CCC(=O)O)C(=O)N[C@@H](CCC(=O)O)C(=O)N[C@@H](CS)C(=O)N[C@@H](CCC(N)=O)C(=O)N[C@@H](Cc1cnc[nH]1)C(=O)N[C@@H](CCC(N)=O)C(=O)N[C@@H](Cc1ccccc1)C(=O)N[C@@H](CCCNC(=N)N)C(=O)N[C@@H](CC(=O)O)C(=O)N[C@@H](CCCNC(=N)N)C(=O)N[C@@H](CCCNC(=N)N)C(=O)N[C@@H](Cc1c[nH]c2ccccc12)C(=O)N[C@@H](CC(N)=O)C(=O)N[C@@H](CS)C(N)=O (Ac-IEECQHQFRDRRWNC-NH2) | inactive | inactive | inactive | inactive |  |  |  |  |  |  |  | 
CC[C@H](C)[C@H](NC(=O)CNC(=O)[C@H](Cc1cnc[nH]1)NC(=O)[C@H](CO)NC(=O)[C@H](CO)NC(=O)[C@@H](NC(=O)[C@H](CC(N)=O)NC(=O)[C@@H](N)CS)C(C)C)C(=O)N[C@@H](CC(=O)O)C(=O)NCC(=O)N[C@@H](CS)C(=O)N[C@@H](CC(=O)O)C(=O)N[C@@H](CC(C)C)C(=O)O (H-CNVSSHGIDGCDL-OH) |  |  |  |  | inactive | inactive | inactive | inactive | 45.3 | 62.4 | inactive | inactive
Ac-ANKTSEGMDGCEL-NH2 |  |  |  |  | inactive | inactive | inactive | inactive | 70.8 | 82.6 | inactive | inactive
Ac-CNKTSEGMDGAEL-NH2 |  |  |  |  | inactive | inactive | inactive | inactive | 67.2 | 84.9 | inactive | inactive
Ac-DLVYFELSPDFCA-NH2 | inactive | inactive | inactive | inactive |  |  |  |  |  |  |  | 
Ac-GDWEWGECSDNI-NH2 | inactive | inactive | inactive | inactive |  |  |  |  |  |  |  | 
Ac-GSKGTQGRACN-NH2 | inactive | inactive | inactive | inactive |  |  |  |  |  |  |  | 
Ac-MNRHNNEAGR-NH2 | inactive | inactive | inactive | inactive |  |  |  |  |  |  |  | 
